Test results reported in patent US20240115654A1, “INTRAVENOUS ADMINISTRATION OF ENGINEERED ANTIMICROBIAL AMPHIPHILIC PEPTIDES” (priority 2021, published 2024).
Read-outs that look alike come from different tables or passages of the source. Peptide text beside a SMILES is read from it.

Conditions: human, in vivo
[1] = single 1-hour infusion 0.05 mg/kg, Geometric Mean
[2] = single 1-hour infusion 0.05 mg/kg, Mean
[3] = single 1-hour infusion 0.05 mg/kg, Median
[4] = single 1-hour infusion 0.05 mg/kg, individual subjects
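Note: phase 1 study in human subjects given one IV dose of the peptide, enrolled in sequential ascending-dose cohorts and randomized to peptide or placebo.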

CC(C)[C@H](NC(=O)[C@H](Cc1c[nH]c2ccccc12)NC(=O)[C@H](CCCNC(=N)N)NC(=O)[C@H](CCCNC(=N)N)NC(=O)[C@@H](NC(=O)[C@@H](NC(=O)[C@H](CCCNC(=N)N)NC(=O)[C@@H](NC(=O)[C@@H](NC(=O)[C@H](CCCNC(=N)N)NC(=O)[C@H](CCCNC(=N)N)NC(=O)[C@H](Cc1c[nH]c2ccccc12)NC(=O)[C@@H](NC(=O)[C@H](CCCNC(=N)N)NC(=O)[C@H](CCCNC(=N)N)NC(=O)[C@@H](NC(=O)[C@H](CCCNC(=N)N)NC(=O)[C@H](CCCNC(=N)N)NC(=O)[C@@H](NC(=O)[C@H](Cc1c[nH]c2ccccc12)NC(=O)[C@H](CCCNC(=N)N)NC(=O)[C@@H](N)CCCNC(=N)N)C(C)C)C(C)C)C(C)C)C(C)C)C(C)C)C(C)C)C(C)C)C(=O)N[C@@H](CCCNC(=N)N)C(=O)N[C@@H](CCCNC(=N)N)C(N)=O [SEQ ID NO: 1] (H-RRWVRRVRRVWRRVVRVVRRWVRR-NH2)
clearance: 40.3 to 69.7 mL/min | AUC(0-inf) (0.05 mg/kg, AUC0-inf, 0.05 mg/kg 1-hr infusion): 1580 ng·h/mL | AUC(0-t) (0.05 mg/kg, AUC0-t, 0.05 mg/kg 1-hr infusion): 1280 ng·h/mL | AUC(0-inf) (0.05 mg/kg, AUC0-∞): 1580 ng·h/mL | Cmax (0.05 mg/kg, 0.05 mg/kg 1-hr infusion): 256 ng/mL | AUC(0-t) (0.05 mg/kg, mean AUC0-t): 1280 ng·h/mL | half-life (0.05 mg/kg, t1/2, 0.05 mg/kg 1-hr infusion): 7.4 h | AUC(0-inf) (0.5 mg/kg, AUC0-inf, 0.5 mg/kg 2-hr infusion): 9090 ng·h/mL | AUC(0-t) (0.5 mg/kg, AUC0-t, 0.5 mg/kg 2-hr infusion): 8330 ng·h/mL | Cmax (0.5 mg/kg, 0.5 mg/kg 2-hr infusion): 1830 ng/mL | half-life (0.5 mg/kg, t1/2, 0.5 mg/kg 2-hr infusion): 16.2 h | AUC(0-inf) (1 mg/kg, AUC0-∞): 21100 ng·h/mL | AUC(0-t) (1 mg/kg, mean AUC0-t): 21600 ng·h/mL | AUC(0-t) (AUC0-24, single 1-hour infusion 0.05 mg/kg, Geometric Mean): 1230 ng·h/mL | AUC(0-t) (AUC0-24, single 1-hour infusion 0.05 mg/kg, Mean): 1290 ng·h/mL | AUC(0-t) (AUC0-24, single 1-hour infusion 0.05 mg/kg, Median): 1350 ng·h/mL | AUC(0-inf) (AUC0-inf, single 1-hour infusion 0.05 mg/kg, Geometric Mean): 1600 ng·h/mL | AUC(0-inf) (AUC0-inf, single 1-hour infusion 0.05 mg/kg, Mean): 1610 ng·h/mL | AUC(0-inf) (AUC0-inf, single 1-hour infusion 0.05 mg/kg, Median): 1520 ng·h/mL | AUC(0-inf) (AUC0-inf, single 1-hour infusion 0.05 mg/kg, individual subjects): 1400 ng·h/mL | AUC(0-t) (AUC0-t, single 1-hour infusion 0.05 mg/kg, Geometric Mean): 1220 ng·h/mL | AUC(0-t) (AUC0-t, single 1-hour infusion 0.05 mg/kg, Mean): 1310 ng·h/mL | AUC(0-t) (AUC0-t, single 1-hour infusion 0.05 mg/kg, Median): 1350 ng·h/mL | CL/F [1]: 0.522 mL/min/kg | CL/F [2]: 0.525 mL/min/kg | CL/F [3]: 0.548 mL/min/kg | CL/F [4]: 0.595 mL/min/kg | Cmax [1]: 251 ng/mL | Cmax [2]: 256 ng/mL | Cmax [3]: 262 ng/mL | Tmax [1]: 1 h | Tmax [2]: 1 h | Tmax [3]: 1 h | Tmax [4]: 1 h | Tmax (single 1-hour infusion […], individual subjects): 1 h | half-life ([…], t1/2, […] 1-hr infusion): 10.5 h | half-life ([…], t1/2, […] 1-hr infusion (only 3 subjects)): 19.9 h | half-life ([…], t1/2, […] 2-hr infusion): 13.2 h | AUC(0-t) (iv, 0.05 mg/kg, AUC0-t, 0.05 mg/kg IV 1-hr infusion): 1280 ng·h/mL | AUC(0-inf) (iv, 0.05 mg/kg, AUC0-∞, 0.05 mg/kg IV 1-hr infusion): 1580 ng·h/mL | AUC(0-t) (iv, 0.05 mg/kg, AUC(0-24), Actual mean, Phase 1 subjects, 0.05 mg/kg IV): 1290 ng·h/mL | Cmax (iv, 0.05 mg/kg, 0.05 mg/kg IV 1-hr infusion): 256 ng/mL | half-life (iv, 0.05 mg/kg, t1/2, 0.05 mg/kg IV 1-hr infusion): 7.37 h | AUC(0-t) (iv, 0.5 mg/kg, AUC0-t, 0.5 mg/kg IV 2-hr infusion): 8330 ng·h/mL | AUC(0-inf) (iv, 0.5 mg/kg, AUC0-∞, 0.5 mg/kg IV 2-hr infusion): 9090 ng·h/mL | Cmax (iv, 0.5 mg/kg, 0.5 mg/kg IV 2-hr infusion): 1830 ng/mL | half-life (iv, 0.5 mg/kg, t1/2, 0.5 mg/kg IV 2-hr infusion): 16.2 h | AUC(0-t) (iv, 1 mg/kg, AUC0-t, 1 mg/kg IV 4-hr infusion): 21600 ng·h/mL | AUC(0-inf) (iv, 1 mg/kg, AUC0-∞, 1 mg/kg IV 4-hr infusion): 21100 ng·h/mL | Cmax (iv, 1 mg/kg, 1 mg/kg IV 4-hr infusion): 2650 ng/mL | half-life (iv, 1 mg/kg, t1/2, 1 mg/kg IV 4-hr infusion): 20 h | AUC(0-t) (iv, AUC0-24, Cohort 1, 0.05 mg/kg IV infusion, Geometric Mean): 1230 ng·h/mL | AUC(0-t) (iv, AUC0-24, Cohort 1, 0.05 mg/kg IV infusion, Mean): 1290 ng·h/mL | AUC(0-t) (iv, AUC0-24, Cohort 1, 0.05 mg/kg IV infusion, Median): 1350 ng·h/mL | AUC(0-t) (iv, AUC0-24, Cohort 1, 0.05 mg/kg IV infusion, cohort Geometric Mean): 1230 ng·h/mL | AUC(0-t) (iv, AUC0-24, Cohort 1, 0.05 mg/kg IV infusion, cohort Mean): 1290 ng·h/mL | AUC(0-t) (iv, AUC0-24, Cohort 1, 0.05 mg/kg IV infusion, cohort Median): 1350 ng·h/mL | AUC(0-t) (iv, AUC0-24, Cohort 4, 0.5 mg/kg IV infusion 2 hours, Geometric Mean): 6930 ng·h/mL | AUC(0-t) (iv, AUC0-24, Cohort 4, 0.5 mg/kg IV infusion 2 hours, Mean): 7390 ng·h/mL | AUC(0-t) (iv, AUC0-24, Cohort 4, 0.5 mg/kg IV infusion 2 hours, Median): 7270 ng·h/mL | AUC(0-t) (iv, AUC0-24, Cohort 4, 0.5 mg/kg IV, infusion 2 hours, cohort Geometric Mean): 6930 ng·h/mL | AUC(0-t) (iv, AUC0-24, Cohort 4, 0.5 mg/kg IV, infusion 2 hours, cohort Mean): 7390 ng·h/mL | AUC(0-t) (iv, AUC0-24, Cohort 4, 0.5 mg/kg IV, infusion 2 hours, cohort Median): 7270 ng·h/mL | AUC(0-t) (iv, AUC0-24, Cohort 5, 1 mg/kg IV infusion 4 hours, Geometric Mean): 17300 ng·h/mL | AUC(0-t) (iv, AUC0-24, Cohort 5, 1 mg/kg IV infusion 4 hours, Mean): 18000 ng·h/mL | AUC(0-t) (iv, AUC0-24, Cohort 5, 1 mg/kg IV infusion 4 hours, Median): 14800 ng·h/mL | AUC(0-inf) (iv, AUC0-inf, Cohort 1, 0.05 mg/kg IV infusion, Geometric Mean): 1600 ng·h/mL | AUC(0-inf) (iv, AUC0-inf, Cohort 1, 0.05 mg/kg IV infusion, Mean): 1610 ng·h/mL | AUC(0-inf) (iv, AUC0-inf, Cohort 1, 0.05 mg/kg IV infusion, Median): 1520 ng·h/mL | AUC(0-inf) (iv, AUC0-inf, Cohort 1, 0.05 mg/kg IV infusion, cohort Geometric Mean): 1600 ng·h/mL | AUC(0-inf) (iv, AUC0-inf, Cohort 1, 0.05 mg/kg IV infusion, cohort Mean): 1610 ng·h/mL | AUC(0-inf) (iv, AUC0-inf, Cohort 1, 0.05 mg/kg IV infusion, cohort Median): 1520 ng·h/mL | AUC(0-inf) (iv, AUC0-inf, Cohort 1, 0.05 mg/kg IV infusion, individual subject): 1400 ng·h/mL | AUC(0-inf) (iv, AUC0-inf, Cohort 1, 0.05 mg/kg IV infusion, individual subjects): 1400 ng·h/mL | AUC(0-inf) (iv, AUC0-inf, Cohort 4, 0.5 mg/kg IV infusion 2 hours, Geometric Mean): 8530 ng·h/mL | AUC(0-inf) (iv, AUC0-inf, Cohort 4, 0.5 mg/kg IV infusion 2 hours, Mean): 9200 ng·h/mL | AUC(0-inf) (iv, AUC0-inf, Cohort 4, 0.5 mg/kg IV infusion 2 hours, Median): 9540 ng·h/mL | AUC(0-inf) (iv, AUC0-inf, Cohort 4, 0.5 mg/kg IV, infusion 2 hours, cohort Geometric Mean): 8530 ng·h/mL | AUC(0-inf) (iv, AUC0-inf, Cohort 4, 0.5 mg/kg IV, infusion 2 hours, cohort Mean): 9200 ng·h/mL | AUC(0-inf) (iv, AUC0-inf, Cohort 4, 0.5 mg/kg IV, infusion 2 hours, cohort Median): 9540 ng·h/mL | AUC(0-inf) (iv, AUC0-inf, Cohort 5, 1 mg/kg IV infusion 4 hours, Geometric Mean): 21100 ng·h/mL | AUC(0-inf) (iv, AUC0-inf, Cohort 5, 1 mg/kg IV infusion 4 hours, Mean): 21300 ng·h/mL | AUC(0-inf) (iv, AUC0-inf, Cohort 5, 1 mg/kg IV infusion 4 hours, Median): 21000 ng·h/mL | AUC(0-inf) (iv, AUC0-inf, Cohort 5, 1 mg/kg IV infusion 4 hours, individual subject): 22100 ng·h/mL | AUC(0-t) (iv, AUC0-t, Cohort 1, 0.05 mg/kg IV infusion, Geometric Mean): 1220 ng·h/mL | AUC(0-t) (iv, AUC0-t, Cohort 1, 0.05 mg/kg IV infusion, Mean): 1310 ng·h/mL | AUC(0-t) (iv, AUC0-t, Cohort 1, 0.05 mg/kg IV infusion, Median): 1350 ng·h/mL | AUC(0-t) (iv, AUC0-t, Cohort 1, 0.05 mg/kg IV infusion, cohort Geometric Mean): 1220 ng·h/mL | AUC(0-t) (iv, AUC0-t, Cohort 1, 0.05 mg/kg IV infusion, cohort Mean): 1310 ng·h/mL | AUC(0-t) (iv, AUC0-t, Cohort 1, 0.05 mg/kg IV infusion, cohort Median): 1350 ng·h/mL | AUC(0-t) (iv, AUC0-t, Cohort 4, 0.5 mg/kg IV infusion 2 hours, Geometric Mean): 7830 ng·h/mL | AUC(0-t) (iv, AUC0-t, Cohort 4, 0.5 mg/kg IV infusion 2 hours, Mean): 8440 ng·h/mL | AUC(0-t) (iv, AUC0-t, Cohort 4, 0.5 mg/kg IV infusion 2 hours, Median): 8540 ng·h/mL | AUC(0-t) (iv, AUC0-t, Cohort 4, 0.5 mg/kg IV, infusion 2 hours, cohort Geometric Mean): 7830 ng·h/mL | AUC(0-t) (iv, AUC0-t, Cohort 4, 0.5 mg/kg IV, infusion 2 hours, cohort Mean): 8440 ng·h/mL | AUC(0-t) (iv, AUC0-t, Cohort 4, 0.5 mg/kg IV, infusion 2 hours, cohort Median): 8540 ng·h/mL | AUC(0-t) (iv, AUC0-t, Cohort 5, 1 mg/kg IV infusion 4 hours, Geometric Mean): 20400 ng·h/mL | AUC(0-t) (iv, AUC0-t, Cohort 5, 1 mg/kg IV infusion 4 hours, Mean): 21200 ng·h/mL | AUC(0-t) (iv, AUC0-t, Cohort 5, 1 mg/kg IV infusion 4 hours, Median): 17600 ng·h/mL | Cmax (iv, Cohort 1, 0.05 mg/kg IV infusion, Geometric Mean): 251 ng/mL | Cmax (iv, Cohort 1, 0.05 mg/kg IV infusion, Mean): 256 ng/mL | Cmax (iv, Cohort 1, 0.05 mg/kg IV infusion, Median): 262 ng/mL | Cmax (iv, Cohort 1, 0.05 mg/kg IV infusion, cohort Geometric Mean): 251 ng/mL | Cmax (iv, Cohort 1, 0.05 mg/kg IV infusion, cohort Mean): 256 ng/mL | Cmax (iv, Cohort 1, 0.05 mg/kg IV infusion, cohort Median): 262 ng/mL | Cmax (iv, Cohort 4, 0.5 mg/kg IV infusion 2 hours, Geometric Mean): 1770 ng/mL | Cmax (iv, Cohort 4, 0.5 mg/kg IV infusion 2 hours, Mean): 1830 ng/mL
